Test results from PubChem BioAssay (NCI).
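Interpolation was linear, between the two tested concentrations surrounding the appropriate level; five concentrations were tested over 48 hours in 96-well plates. Abbreviation: GI50, concentration required for 50% inhibition of growth. The concentration for full growth arrest is given as TGI.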

Assays:
Assay in all cases: inhibition of tumour cell growth, NCI panel, 48 h
SW-620 colon = test system: SW-620 colon
SNB-75 CNS = test system: SNB-75 CNS
HCT-15 colon = test system: HCT-15 colon
UACC-257 melanoma = test system: UACC-257 melanoma
PC-3 prostate = test system: PC-3 prostate
HOP-92 NSCLC = test system: HOP-92 NSCLC
M14 melanoma = test system: M14 melanoma
HT29 colon = test system: HT29 colon
LOX IMVI melanoma = test system: LOX IMVI melanoma
SK-OV-3 ovarian = test system: SK-OV-3 ovarian
MALME-3M melanoma = test system: MALME-3M melanoma
HS 578T breast = test system: HS 578T breast
TK-10 renal = test system: TK-10 renal
HCT-116 colon = test system: HCT-116 colon
SN12C renal = test system: SN12C renal
SK-MEL-28 melanoma = test system: SK-MEL-28 melanoma
DU-145 prostate = test system: DU-145 prostate
NCI-H23 lung = test system: NCI-H23 lung
SF-539 CNS = test system: SF-539 CNS
T-47D breast = test system: T-47D breast
MDA-MB-435 = test system: MDA-MB-435
MCF7 breast = test system: MCF7 breast
SF-295 CNS = test system: SF-295 CNS
ACHN renal = test system: ACHN renal
EKVX NSCLC = test system: EKVX NSCLC
SR leukemia = test system: SR leukemia
U251 CNS = test system: U251 CNS
NCI/ADR-RES ovarian = test system: NCI/ADR-RES ovarian
COLO 205 colon = test system: COLO 205 colon
HOP-62 NSCLC = test system: HOP-62 NSCLC
HCC-2998 colon = test system: HCC-2998 colon
OVCAR-4 ovarian = test system: OVCAR-4 ovarian
SK-MEL-2 melanoma = test system: SK-MEL-2 melanoma
RPMI-8226 leukemia = test system: RPMI-8226 leukemia
OVCAR-5 ovarian = test system: OVCAR-5 ovarian
MOLT-4 leukemia = test system: MOLT-4 leukemia
MDA-MB-231 breast = test system: MDA-MB-231 breast
HL-60(TB) leukemia = test system: HL-60(TB) leukemia
IGROV1 ovarian = test system: IGROV1 ovarian
CAKI-1 renal = test system: CAKI-1 renal
KM12 colon = test system: KM12 colon
CCRF-CEM leukemia = test system: CCRF-CEM leukemia
NCI-H226 lung = test system: NCI-H226 lung
OVCAR-3 ovarian = test system: OVCAR-3 ovarian
SNB-19 CNS = test system: SNB-19 CNS
A549 NSCLC = test system: A549 NSCLC
SF-268 CNS = test system: SF-268 CNS
786-0 renal = test system: 786-0 renal
RXF 393 renal = test system: RXF 393 renal
UACC-62 melanoma = test system: UACC-62 melanoma
K-562 leukemia = test system: K-562 leukemia
BT-549 breast = test system: BT-549 breast
A498 renal = test system: A498 renal
NCI-H460 lung = test system: NCI-H460 lung
SK-MEL-5 melanoma = test system: SK-MEL-5 melanoma
NCI-H522 lung = test system: NCI-H522 lung
OVCAR-8 ovarian = test system: OVCAR-8 ovarian

## CC1=C(CN(O)C(N)=O)C2=C(C)C3(CC3)[C@@](C)(O)C(=O)C2=C1
SW-620 colon
  GI50: 10800 nM
  TGI: > 100000 nM
SNB-75 CNS
  GI50: 215 nM
  TGI: 464 nM
HCT-15 colon
  GI50: 267 nM
  TGI: 883 nM
UACC-257 melanoma
  GI50: 280 nM
  TGI: 765 nM
PC-3 prostate
  GI50: 398 nM
  TGI: 5240 nM
HOP-92 NSCLC
  GI50: 208 nM
  TGI: 618 nM
M14 melanoma
  GI50: 269 nM
  TGI: 699 nM
HT29 colon
  GI50: 316 nM
  TGI: > 34500 nM
LOX IMVI melanoma
  GI50: 402 nM
  TGI: 2040 nM
SK-OV-3 ovarian
  GI50: 305 nM
  TGI: 1090 nM
MALME-3M melanoma
  GI50: 205 nM
  TGI: 424 nM
HS 578T breast
  GI50: 503 nM
  TGI: 3000 nM
TK-10 renal
  GI50: 308 nM
  TGI: 909 nM
HCT-116 colon
  GI50: 267 nM
SN12C renal
  GI50: 373 nM
  TGI: 2670 nM
SK-MEL-28 melanoma
  GI50: 229 nM
  TGI: 505 nM
DU-145 prostate
  GI50: 43.9 nM
  TGI: 1110 nM
NCI-H23 lung
  GI50: 109 nM
  TGI: 544 nM
SF-539 CNS
  GI50: 216 nM
  TGI: 556 nM
T-47D breast
  GI50: 214 nM
  TGI: 1720 nM
MDA-MB-435
  GI50: 662 nM
  TGI: 2370 nM
MCF7 breast
  GI50: 921 nM
  TGI: 10100 nM
SF-295 CNS
  GI50: 252 nM
  TGI: 1160 nM
ACHN renal
  GI50: 236 nM
  TGI: 572 nM
EKVX NSCLC
  GI50: 346 nM
  TGI: 1530 nM
SR leukemia
  GI50: 7600 nM
  TGI: > 80900 nM
U251 CNS
  GI50: 337 nM
NCI/ADR-RES ovarian
  GI50: 381 nM
  TGI: 3110 nM
COLO 205 colon
  GI50: 185 nM
  TGI: 517 nM
HOP-62 NSCLC
  GI50: 178 nM
  TGI: 996 nM
HCC-2998 colon
  GI50: 174 nM
  TGI: 414 nM
OVCAR-4 ovarian
  GI50: 285 nM
  TGI: 1550 nM
SK-MEL-2 melanoma
  GI50: 356 nM
  TGI: 1210 nM
RPMI-8226 leukemia
  GI50: 7190 nM
  TGI: > 100000 nM
OVCAR-5 ovarian
  GI50: 367 nM
  TGI: 2270 nM
MOLT-4 leukemia
  GI50: 21300 nM
  TGI: > 100000 nM
MDA-MB-231 breast
  GI50: 324 nM
  TGI: 1780 nM
HL-60(TB) leukemia
  GI50: 279 nM
  TGI: 3550 nM
IGROV1 ovarian
  GI50: 208 nM
  TGI: 940 nM
CAKI-1 renal
  GI50: 253 nM
  TGI: 1350 nM
KM12 colon
  GI50: 530 nM
  TGI: 5410 nM
CCRF-CEM leukemia
  GI50: 29600 nM
  TGI: > 100000 nM
NCI-H226 lung
  GI50: 235 nM
  TGI: 644 nM
OVCAR-3 ovarian
  GI50: 260 nM
  TGI: 769 nM
SNB-19 CNS
  GI50: 469 nM
  TGI: 6180 nM
A549 NSCLC
  GI50: 118 nM
  TGI: 1220 nM
SF-268 CNS
  GI50: 236 nM
  TGI: 1560 nM
786-0 renal
  GI50: 343 nM
RXF 393 renal
  GI50: 141 nM
  TGI: 290 nM
UACC-62 melanoma
  GI50: 224 nM
  TGI: 562 nM
K-562 leukemia
  GI50: 16300 nM
  TGI: > 100000 nM
BT-549 breast
  GI50: 367 nM
  TGI: 1590 nM
A498 renal
  GI50: 175 nM
  TGI: 359 nM
NCI-H460 lung
  GI50: 45.2 nM
  TGI: 909 nM
SK-MEL-5 melanoma
  GI50: 195 nM
  TGI: 409 nM
NCI-H522 lung
  GI50: 1230 nM
  TGI: 4650 nM
OVCAR-8 ovarian
  GI50: 337 nM
  TGI: 6680 nM
